Literature values, collected in patent publication US20080045583A1, “STABLE LEVETIRACETAM COMPOSITIONS AND METHODS” (priority 2006, published 2008).

Details: oral, with or without food

SMILES: CC[C@@H](C(N)=O)N1CCCC1=O [Levetiracetam, (−)-(S)-α-ethyl-2-oxo-1-pyrrolidine acetamide]
- bioavailability, effect of food: not affected by food
